Data taken from patent US8796327B2, “Method for inhibiting production of cytokines of T helper cell type II and/or inhibiting production of chemokines using brazilin” (China Medical University, priority 2010, dated 2014).

Legend:
IL-4 [1] = assay: ELISA of IL-4 in bronochial alveolar lavage fluid, mice with asthma (OVA); type: in vivo, BALB/c mice; conditions: for IL-4 concentration (pico-gram/ml): i.p. or i.t., OVA-sensitized BALB/c mice
Protocol: (§1) In Example 2, mice with asthma were used to conduct in vivo experiments, and ovalbumin (OVA) was used as an allergen.
(§2) The mice were sensitized (or challenged) according to the steps shown in FIG. 9 (see Lee et al., Lentiviral-mediated GATA-3 RNAi decreases allergic airway inflammation and hyperresponsiveness. Molecular Therapy, 2008; 16:60-65, which is incorporated herein in its entirety by reference). First, 50 μg OVA (using 2 mg alumina (Alum, Alumlmuject, Pierce Chemical, Rockford, Ill., USA) as an adjuvant) was injected into six to eight-week-old BALB/c female mice (from National Laboratory Animal Center, Taiwan) by intraperitoneal injection (i.p.). At 0th, 14th, and 28th day, the mice were injected with OVA at the same dosage. Before the administration of OVA at the forty-first and the forty-second days, different dosages of brazilin (high dose: 430 μg/mice; low dose: 43 μg/mice) were administrated to the mice by intraperitoneal injection (i.p.) or intratracheal instillation (i.t.). During the fortieth to the forty-second days, 100 μg OVA was dissolved in 40 μl PBS, and was administrated to the mice by intranasal instillation (i.n.) (once everyday, for three days). At the forty-third day, airway hyperresponsiveness of the mice was observed. […]
(§3) In Experiment D, after 24 hours from the last administration of OVA into the noses of the mice, the mice were sacrificed, and the blood was collected from the orbital cavities of the mice. […] Cells obtained after the centrifugation were re-suspended in a 1 ml HBSS buffer solution, and the total cell number was counted with a hemocytometer.
(§4) The bronochial alveolar lavage fluid collected in Experiment E was centrifuged at 4° C. and with a revolution speed of 400 g for 10 minutes. After the supernatant was collected, the expression of eotaxin, IL-4, IL-5, and IFN-γ was analyzed with an ELISA kit (R&D Systems, Inc., USA). […]

eotaxin = assay: ELISA of eotaxin in bronochial alveolar lavage fluid, mice with asthma (OVA); type: in vivo, BALB/c mice; conditions: for Eotaxin concentration (pico-gram/ml): i.p. or i.t., OVA-sensitized BALB/c mice
Protocol: as §1, §2, §3, §4

[2] = test system: invasion of inflammatory cells into the lungs; assay: Histopathological examination of H&E stained lung tissue slices, mice with asthma (OVA); type: in vivo; conditions: OVA-sensitized BALB/c mice, result in words
Protocol: as §1, §2

IL-5 = assay: ELISA of IL-5 in supernatant of EL-4 T lymphoma cells; type: cell-based, mouse; conditions: EL-4 cells
Protocol: First, in an incubator containing 5 vol % of CO2 at 37° C., EL-4 mouse T lymphoma cells (commercially available from ATCC, Manassas, Va., America) were cultured in the DMEM culture medium (containing 10 wt % of thermally deactivated FBS), and were sub-cultured at a ratio of 1:3.
Then, at a density of 5×10^5 counts/ml, the T lymphoma cells were bred in a six-well culture dish, and at the 0th minute, brazilin of different concentrations (0.3, 1, 3, 10, or 30 micromole (μM)) was added into the cell culture solution at an amount of 1 μl/ml-cell culture solution. Then, the cells were put into the incubator to be cultured therein. […] During the process of cell culture, the trypan blue exclusion assay was employed to observe effect of the brazilin on the cell viability, results of which are shown in Table 1 and FIG. 1.
At 4° C., the T lymphoma cells obtained from Experiment A were centrifugally rotated at a rotational speed of 1000 rpm and at 4° C. for 5 minutes, and the supernatant was collected and analyzed for cytokines.
An enzyme-linked immunosorbent assay (ELISA) kit (commercially available from R&D Systems, Inc., America) was used to analyze the expression of IFN-γ, IL-4, IL-5, and eotaxin cytokines in the aforesaid supernatant, results of which are shown in Table 2, Table 3, FIG. 2, and FIG. 3.
In Experiment B and the following Experiment C, all experimental data are presented in form of “mean±standard deviation”, and statistical discrepancy was analyzed by means of the One-way ANOVA and Newman-keuls post-hoc tests, in which it is considered that there is statistical discrepancy if p<0.05.

IL-4 [3] = assay: ELISA of IL-4 in supernatant of EL-4 T lymphoma cells; type: cell-based, mouse; conditions: EL-4 cells, no PMA + cAMP

For `Oc1ccc2c(c1)OC[C@]1(O)Cc3cc(O)c(O)cc3[C@H]21` [brazilin], the “production of IL-4 cytokine” value (IL-4 [1]; BALB/c mice, result in words) was “inhibited”, the “IL-4 concentration (pico-gram/ml)” value (IL-4 [1]; High dose (430 μg/mice)) was 23.01 ± 2.327 pico-gram/ml and the “IL-4 concentration (pico-gram/ml)” value (IL-4 [1]; Low dose (43 μg/mice)) was 36.76 ± 5.490 pico-gram/ml. The “production of β-chemokine, eotaxin” value (eotaxin; BALB/c mice, result in words) was “inhibited”, the “Eotaxin concentration (pico-gram/ml)” value (eotaxin; High dose (430 μg/mice)) was 12.61 ± 1.334 pico-gram/ml and the “Eotaxin concentration (pico-gram/ml)” value (eotaxin; Low dose (43 μg/mice)) was 18.64 ± 3.784 pico-gram/ml. For the same molecule, the “invasion of inflammatory cells (H&E lung slices, FIG. 11)” value [2] was “reduced”, the “expression of protein of IL-5 cytokine” value (IL-5; result in words) was “inhibited” and the “Concentration of IL-5 (pico-gram/ml)” value (IL-5; brazilin 0.3 μM + PMA + cAMP) was 2480 ± 515.9 pico-gram/ml. The “Concentration of IL-5 (pico-gram/ml)” value (IL-5; brazilin 0.3 μM, no PMA + cAMP) was 5.925 ± 3.462 pico-gram/ml, the “Concentration of IL-5 (pico-gram/ml)” value (IL-5; brazilin 1 μM + PMA + cAMP) was 2580 ± 402.8 pico-gram/ml and the “Concentration of IL-5 (pico-gram/ml)” value (IL-5; brazilin 1 μM, no PMA + cAMP) was 0.2422 ± 0.2422 pico-gram/ml. For the same molecule, the “Concentration of IL-5 (pico-gram/ml)” value (IL-5; brazilin 3 μM + PMA + cAMP) was 2345 ± 392.6 pico-gram/ml, the “Concentration of IL-5 (pico-gram/ml)” value (IL-5; brazilin 3 μM, no PMA + cAMP) was 0.2422 ± 0.2422 pico-gram/ml and the “Concentration of IL-5 (pico-gram/ml)” value (IL-5; brazilin 10 μM + PMA + cAMP) was 1809 ± 337.9 pico-gram/ml. The “Concentration of IL-5 (pico-gram/ml)” value (IL-5; brazilin 10 μM, no PMA + cAMP) was 1.474 ± 0.9891 pico-gram/ml, the “Concentration of IL-5 (pico-gram/ml)” value (IL-5; brazilin 30 μM + PMA + cAMP) was 1292 ± 531.6 pico-gram/ml and the “Concentration of IL-5 (pico-gram/ml)” value (IL-5; brazilin 30 μM, no PMA + cAMP) was 0.0 ± 0.0 pico-gram/ml. The “Concentration of IL-4 (pico-gram/ml)” value (IL-4 [3]; brazilin 0.3 μM) was 2.569 ± 0.1160 pico-gram/ml, the “Concentration of IL-4 (pico-gram/ml)” value (IL-4 [3]; brazilin 1 μM) was 5.353 ± 1.276 pico-gram/ml and the “Concentration of IL-4 (pico-gram/ml)” value (IL-4 [3]; brazilin 3 μM) was 5.469 ± 0.1160 pico-gram/ml. For the same molecule, the “Concentration of IL-4 (pico-gram/ml)” value (IL-4 [3]; brazilin 10 μM) was 7.093 ± 0.3480 pico-gram/ml and the “Concentration of IL-4 (pico-gram/ml)” value (IL-4 [3]; brazilin 30 μM) was 4.715 ± 0.9859 pico-gram/ml.
